In patent US6699681B2, “Endothelin converting enzymes and the amyloid β peptide” (Mayo Foundation for Medical Education and Research, priority 2000, dated 2004):

Legend:
H4 neuroglioma cells = test: Extracellular Aβ after treatment of H4 cells with metalloprotease inhibitors; format: cell-based, human; settings: H4 neuroglioma cells; thiorphan or captopril at concentrations greater than 1000-times the reported IC50 for the target enzymes
Method: Human and guinea pig Aβ40 or Aβ42 was measured in plasma by sandwich ELISA as previously described (Suzuki et al., 1994, Science, 264:1336-1340) using the BAN-50/BA-27 or BAN-50/BC-05 antibody systems, respectively (Takeda; Japan). Hamster Aβ40- or Aβ42-derived from CHO cells was measured using the BNT-77/BA-27 or BNT-77/BC-05 antibody systems, respectively. Aβ concentration in samples was determined by comparison to synthetic Aβ40 or Aβ42 standards (Bachem, Switzerland). Data was obtained from triplicate wells.
In particular, the sandwich ELISA used herein was performed as follows: 96-well microtiter plates were coated overnight at 4° C. with 100 μl of a 5 μg/ml dilution of primary antibody in sodium carbonate coating buffer (SCCB; 0.1 M Na2CO3, pH 9.6). Plates were blocked overnight at 4° C. with 300 μl of BLOCKAGE Solution (PBS+1.0% BLOCKAGE (Snow Brand Milk Products, Japan), 0.05% NaN3, pH 7.4). Samples for analysis and synthetic Aβ standards (Bachem, Switzerland) were diluted in buffer EC (0.02 M NaH2PO4, 0.002 M EDTA, 0.4 M NaCl, 0.2% BSA, 0.05% CHAPS, 0.04% BLOCKAGE, 0.05% NaN3, pH 7.0) and allowed to incubate on the plates overnight at 4° C. Plates were washed twice with PBS (8 mM Na2HPO4, 1.5 mM KH2PO4, 139 mM NaCl, 2.7 mM KCl, pH 7.4) and 100 μl of secondary antibody directly coupled to HRP (EZ-LINK™ Plus Activated Peroxidase kit (contents of kit: peroxidase, 5 M sodium cyanoborohydride solution (NaBH3CN), quenching buffer (3 M ethanolamine, pH 9.0), BupH™ phosphate buffered saline, Buph™ carbonate-bicarbonate buffer), according to manufacturers directions; Pierce Chemical Co., Rockford, Ill.) was allowed to bind either 4 hrs at room temperature or overnight at 4° C. Plates were then washed twice with PBS containing 0.05% Tween 20 followed by two additional washes in PBS. Detection was performed using TMB (3,3′,5,5′-tetramethyl-benzidine) as an HRP substrate according to the manufacturer's specifications (Kirkegaard & Perry Laboratories (KPL), Gaithersburg, Md.) and the reaction stopped by the addition of 100 μl of 1N H3PO4. Plates were read at 450 nm in a SpectraMax Plus spectrophotometer (Molecular Devices; Sunnyvale, Calif.) and analyzed by SOFTmax® PRO software. Aβ40 or Aβ42 were quantitated by comparison with the values obtained for each synthetic Aβ standard from the same plate.
Cells were passaged into 6-well plates one day prior to treatment and grown to confluence. […] After treatment, the culture medium was harvested, spun at 14,000 xg, and the supernatant analyzed for Aβ40 or Aβ42 using sandwich ELISA and for secreted APP using Western blot. […] Bound antibody was detected by incubation with the appropriate HRP-linked secondary antibody (Amersham, Uppsala, Sweden) using ECL™ Western blotting reagents (Amersham) followed by exposure to X-ray film. […]

Aβ in the brain = settings: infusion into the brain of rats; deposition of Aβ42; previous report; cited from earlier work
3H-Aβ40 = test: Degradation of 3H labeled Aβ40 by SolECE-1, reverse-phase chromatography; format: biochemical; settings: 3H-Aβ40 0.56 μM
Method: (§1) SolECE-1 (approximately 0.2 μM) was pre-incubated for 15 min at room temperature with the ECE inhibitors PD069185 (synthesized according to published methods (Ahn et al., 1998, Biochem. Biophys. Res. Comm., 243:184-190) by the Mayo Clinic Organic Chemistry Core Facility, Jacksonville, Fla.) or phosphoramidon (150 μM), or an equal volume of vehicle (DMSO or PBS, respectively) prior to incubation with synthetic Aβ40 or Aβ42 (0.01 μM) in 50 mM MES (pH 6.5) containing 0.01% C12E10, 1 mM PMSF, 100 μM leupeptin, and 20 μM pepstatin. As a control, Aβ was incubated with Ni-NTA purified proteins from non-transfected CHO cells, or in reaction buffer alone. Following incubation for 24 hrs at 37° C., the reactions were stopped by the addition of 5 mM EDTA. Aβ concentration was then analyzed using a highly specific sandwich ELISA that captures Aβ via binding of antibody BAN-50 to the N-terminus, and detects only full-length Aβ peptides ending at residue 40 (using antibody BA-27) or 42 (using antibody BC-05). Thus, Aβ that has been further hydrolyzed will not be detected using this assay. To further analyze the degradation of Aβ by SolECE1, the enzyme was incubated with ^3H labeled Aβ40 (0.56 μM, 2×10^4 dpm) as described above and resulting peptides were separated by reverse-phase chromatography.

synthetic Aβ40 or Aβ42 = test: Aβ degradation by SolECE-1, sandwich ELISA; format: biochemical; settings: SolECE-1 approximately 0.2 μM; Aβ 0.01 μM; 24 hrs at 37° C., pH 6.5
Method: as §1

Row | Molecule | extracellular Aβ accumulation (H4 neuroglioma cells) | amount of Aβ in the brain (Aβ in the brain) | effect on 3H-Aβ40 by reverse-phase chromatography (3H-Aβ40) | loss of synthetic Aβ40 and Aβ42 detected by sandwich ELISA (synthetic Aβ40 or Aβ42)
1 | C[C@H](CS)C(=O)N1CCC[C@H]1C(=O)O [captopril] | failed to result in increased extracellular Aβ |  |  | 
2 | O=C(O)CNC(=O)C(CS)Cc1ccccc1 (centres unmarked) [thiorphan] | failed to result in increased extracellular Aβ | significant increase |  | 
3 | SolECE-1: recombinant soluble form of ECE-1: extracellular domain of human ECE-1a with c-myc and 6×His tags, secreted by CHO cells (protein, UniProt P42892 90-770, looked up, extracellular domain c-myc and 6xHis tags, recombinant soluble form of ECE-1: extracellular domain of human ECE-1a with c-myc and 6×His tags, secreted by CHO cells) extracellular domain: QYQTRSPSVCLSEACVSVTSSILSSMDPTVDPCHDFFSYACGGWIKANPVPDGHSRWGTFSNLWEHNQAIIKHLLENSTASVSEAERKAQVYYRACMNETRIEELRAKPLMELIERLGGWNITGPWAKDNFQDTLQVVTAHYRTSPFFSVYVSADSKNSNSNVIQVDQSGLGLPSRDYYLNKTENEKVLTGYLNYMVQLGKLLGGGDEEAIRPQMQQILDFETALANITIPQEKRRDEELIYHKVTAAELQTLAPAINWLPFLNTIFYPVEINESEPIVVYDKEYLEQISTLINTTDRCLLNNYMIWNLVRKTSSFLDQRFQDADEKFMEVMYGTKKTCLPRWKFCVSDTENNLGFALGPMFVKATFAEDSKSIATEIILEIKKAFEESLSTLKWMDEETRKSAKEKADAIYNMIGYPNFIMDPKELDKVFNDYTAVPDLYFENAMRFFNFSWRVTADQLRKAPNRDQWSMTPPMVNAYYSPTKNEIVFPAGILQAPFYTRSSPKALNFGGIGVVVGHELTHAFDDQGREYDKDGNLRPWWKNSSVEAFKRQTECMVEQYSNYSVNGEPVNGRHTLGENIADNGGLKAAYRAYQNWVKKNGAEHSLPTLGLTNNQLFFLGFAQVWCSVRTPESSHEGLITDPHSPSRFRVIGSLSNSKEFSEHFRCPPGSPMNPPHKCEVW |  |  | loss of the full-length (i.e., unhydrolyzed) Aβ and the formation of at least 4 novel peaks | almost complete loss
